Like-named read-outs stand apart in the source and are kept apart here.

In series [1] the target is T1, human GLP-1 receptor (Homo sapiens, UniProt P43220).
T1 construct: expressed in transfected cells; host or cells: BHK cells, clone FCW467-12A/KZ10-1 (parent line BHKTS13), further transfected with CRE luciferase
Kind of series: GLP-1 receptor binding (SPA, displacement of 125I-GLP-1). In outline:
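Tracer [125I]-GLP-1(7-36)NH2 at 0.06 nM final competed on hamster stably transfected cell membranes captured by WGA SPA beads; 120 min, 30 °C, scintillation count.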
(Loss of bound radioactivity is the signal in a displacement assay; it reports binding, not function.)

Series [2] can be described thus: in vivo. The note with it: male, Göttingen, minipig, iv.
The target of series [3] is T1, human GLP-1 receptor. Kind of series: In vitro potency (CRE luciferase; whole cells). It is filed as cell-based. The note with it: BHK cells. In outline: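 Reporter: CRE-luciferase in BHK cells stably expressing human GLP-1R, 5×10^3 cells/well; compounds tested in buffer containing 0% or 1% HSA.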
Series [4] can be described thus: in vivo. The settings on record: male, Sprague Dawley, rat, iv.
A short description of series [5]: Pharmacokinetic (PK) study in minipig. The settings on record: male, Göttingen, in vivo, iv.
Series [6] can be described thus: Pharmacokinetic (PK) study in rat. The note with it: male, Sprague Dawley, in vivo, iv, 6 nmol/kg.
Setting [7] is: In vitro potency (CRE luciferase) EC50 (1% HSA), 1% HSA.

T1 sequence (P43220 24-463): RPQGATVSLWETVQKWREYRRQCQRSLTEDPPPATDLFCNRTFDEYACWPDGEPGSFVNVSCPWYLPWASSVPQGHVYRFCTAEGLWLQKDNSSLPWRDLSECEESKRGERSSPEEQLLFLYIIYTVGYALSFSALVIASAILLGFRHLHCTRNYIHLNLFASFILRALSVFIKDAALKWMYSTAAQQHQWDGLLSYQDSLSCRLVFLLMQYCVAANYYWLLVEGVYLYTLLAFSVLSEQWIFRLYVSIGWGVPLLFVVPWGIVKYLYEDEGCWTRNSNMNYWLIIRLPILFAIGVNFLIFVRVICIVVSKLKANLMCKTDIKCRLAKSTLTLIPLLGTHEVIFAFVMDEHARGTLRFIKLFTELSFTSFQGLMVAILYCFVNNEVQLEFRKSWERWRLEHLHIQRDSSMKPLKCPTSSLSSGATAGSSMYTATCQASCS

Turning to `CC[C@H](C)[C@H](NC(=O)[C@H](Cc1ccccc1)NC(=O)[C@H](CCC(=O)O)NC(=O)[C@H](CCCCNC(=O)[C@@H](N)CCCCNC(=O)COCCOCCNC(=O)CC[C@H](NC(=O)CC[C@H](NC(=O)CCCCCCCCCCCCCCC(=O)O)C(=O)O)C(=O)O)NC(=O)[C@H](C)NC(=O)[C@H](C)NC(=O)[C@H](CCC(N)=O)NC(=O)CNC(=O)[C@H](CCC(=O)O)NC(=O)[C@H](CC(C)C)NC(=O)[C@H](Cc1ccc(O)cc1)NC(=O)[C@H](CO)NC(=O)[C@H](CO)NC(=O)[C@@H](NC(=O)[C@H](CC(=O)O)NC(=O)[C@H](CO)NC(=O)[C@@H](NC(=O)[C@H](Cc1ccccc1)NC(=O)[C@@H](NC(=O)CNC(=O)[C@H](CCC(=O)O)NC(=O)C(C)(C)NC(=O)[C@@H](N)Cc1c[nH]cn1)[C@@H](C)O)[C@@H](C)O)C(C)C)C(=O)N[C@@H](C)C(=O)N[C@@H](Cc1c[nH]c2ccccc12)C(=O)N[C@@H](CC(C)C)C(=O)N[C@H](C(=O)N[C@@H](CCCNC(=N)N)C(=O)NCC(=O)N[C@@H](CCCNC(=N)N)C(=O)N[C@@H](CCCCNC(=O)[C@@H](N)CCCCNC(=O)COCCOCCNC(=O)CC[C@H](NC(=O)CC[C@H](NC(=O)CCCCCCCCCCCCCCC(=O)O)C(=O)O)C(=O)O)C(=O)O)C(C)C` [Example 11, N^ε26-[(2S)-2-amino-6-[[2-[2-[2-[[(4S)-4-carboxy-4-[[(4S)-4-carboxy-4-(15-carboxypentadecanoylamino)butanoyl]amino]butanoyl]amino]ethoxy]ethoxy]acetyl]amino]hexanoyl], N^ε37-[(2S)-2-amino-6-[[2-[2-[2-[[(4S)-4-carboxy-4-[[(4S)-4-carboxy-4-(15-carboxypentadecanoylamino)butanoyl]amino]butanoyl]amino]ethoxy]ethoxy]acetyl]amino]hexanoyl]-[Aib^8,Arg^34, Lys^37]-GLP-1-(7-37)-peptide], the IC50 – broadly, the concentration at which inhibition is half-maximal – on human GLP-1 receptor [1] (0.001% HSA (low albumin), read-out: Receptor binding affinity IC50 (low HSA)) was 740 pM. Moreover, on human GLP-1 receptor [1] (Receptor binding affinity IC50 (high HSA), 2.0% HSA (high albumin), heading: Receptor binding affinity IC50), the IC50 (high HSA) stood at 522000 pM. Moreover, the half-life (as a rule, the time in which the quantity being followed falls by half) in the series “in vivo [2]” is 95 h; in the series “in vivo [4]” it was 28 h. For the same compound, the EC50 (as a rule, the concentration that produces a half-maximal response) came to 7.3 pM at human GLP-1 receptor [3] (0% HSA, read-out: In vitro potency (CRE luciferase) EC50 (0% HSA)) and 1570 pM at human GLP-1 receptor [3] (setting [7]).

Regarding `CC[C@H](C)[C@H](NC(=O)[C@H](Cc1ccccc1)NC(=O)[C@H](CCC(=O)O)NC(=O)[C@H](CCCCNC(=O)[C@H](CCCCNC(=O)[C@H](CCCCNC(=O)CC[C@H](NC(=O)CCCCCCCCCCOc1ccc(C(=O)O)cc1)C(=O)O)N(C)C)N(C)C)NC(=O)[C@H](C)NC(=O)[C@H](C)NC(=O)[C@H](CCC(N)=O)NC(=O)CNC(=O)[C@H](CCC(=O)O)NC(=O)[C@H](CC(C)C)NC(=O)[C@H](Cc1ccc(O)cc1)NC(=O)[C@H](CO)NC(=O)[C@H](CO)NC(=O)[C@@H](NC(=O)[C@H](CC(=O)O)NC(=O)[C@H](CO)NC(=O)[C@@H](NC(=O)[C@H](Cc1ccccc1)NC(=O)[C@@H](NC(=O)CNC(=O)[C@H](CCC(=O)O)NC(=O)C(C)(C)NC(=O)CCc1c[nH]cn1)[C@@H](C)O)[C@@H](C)O)C(C)C)C(=O)N[C@@H](C)C(=O)N[C@@H](Cc1c[nH]c2ccccc12)C(=O)N[C@@H](CC(C)C)C(=O)N[C@H](C(=O)N[C@@H](CCCNC(=N)N)C(=O)NCC(=O)N[C@@H](CCCNC(=N)N)C(=O)N[C@@H](CCCCNC(=O)[C@H](CCCCNC(=O)[C@H](CCCCNC(=O)CC[C@H](NC(=O)CCCCCCCCCCOc1ccc(C(=O)O)cc1)C(=O)O)N(C)C)N(C)C)C(=O)O)C(C)C` [Example 29, N^ε26-[(2S)-6-[[(2S)-6-[[(4S)-4-carboxy-4-[11-(4-carboxyphenoxy)undecanoylamino]butanoyl]amino]-2-(dimethylamino)hexanoyl]amino]-2-(dimethylamino)hexanoyl], N^ε37-[(2S)-6-[[(2S)-6-[[(4S)-4-carboxy-4-[11-(4-carboxyphenoxy)undecanoylamino]butanoyl]amino]-2-(dimethylamino)hexanoyl]amino]-2-(dimethylamino)hexanoyl]-[Imp^7,Aib^8,Arg^34,Lys^37]-GLP-1-(7-37)-peptide], the IC50 on human GLP-1 receptor [1] (Receptor binding affinity IC50 (high HSA), 2.0% HSA (high albumin)) was 56000 pM; on human GLP-1 receptor [1] (Receptor binding affinity IC50 (low HSA), 0.001% HSA (low albumin)), 550 pM. Further, the half-life in series [5] was 82 h; in series [6] it was 19 h. The 50% effective concentration (EC50) came to 7.9 pM at human GLP-1 receptor [3] (In vitro potency (CRE luciferase) EC50 (0% HSA), 0% HSA) and 427 pM at human GLP-1 receptor [3] (setting [7]).

Source of the values: US10604554B2, “Double-acylated GLP-1 derivatives” (Novo Nordisk A/S, priority 2012, dated 2020).
